Results reported in patent US11498923B2 (Merck Sharp & Dohme Corp., priority 2017, dated 2022).

Target: T1, human A2a receptor (Homo sapiens, UniProt P29274)
T1 construct: purchased Perkin-Elmer RBHA2AM400UA; host or cells: HEK293 cells, used as a membrane preparation
Test: A2a receptor competition binding assay (Scintillation Proximity)
Conditions: A2a Ki, membranes from HEK293 cells expressing human A2a receptor; 0.5 nM tritiated ligand; Cheng-Prusoff
Experimental: Binding affinities of compounds of the invention for the human A2a receptor were determined in a competition binding assay using Scintillation Proximity technology. Thus, 0.3 μg of membranes from HEK293 cells expressing the human A2a receptor were incubated with a compound of the invention at concentrations ranging from 3000 nM to 0.15 nM in a reaction mixture containing also 0.5 nM of a tritiated form of 5-amino-7-[2-phenethyl]-2-(furan-2-yl)-7H-pyrazolo[4,3-e][1,2,4]triazolo[1,5-c]pyrimidine (the tritiated compound) and 100 μg of wheat germ agglutin-coated yttrium silicate SPA beads for one hour at room temperature with agitation. The beads were then allowed to settle to the bottom of the wells for 1 hr, after which the membrane-associated radioactivity was determined by scintillation counting in a TopCount microplate reader. Ki values were determined using the Cheng-Prusoff equation.
Summary of Materials and Methods Used in A2a Activity Determination:
HEK293 cells expressing the human, rat, dog or monkey adenosine 2a receptor (Purchased from Perkin-Elmer #RBHA2AM400UA).
The Tritiated compound was prepared according to published methods.
Wheat germ agglutinin-coated yttrium silicate SPA beads (GE Healthcare #RPNQ0023). Dilute to 25 mg/ml in assay buffer.
Assay Buffer was prepared using Dulbecco's calcium and magnesium free phosphate buffered saline+10 mMMgCl2
Adenosine deaminase from calf intestine, 10 mg/2 ml (Roche #10 102 105 001).
A2a antagonist standard (9-chloro-1-(2-furanyl)-[1,2,4]triazolo1,5-c]quinazolin-5-amine from Tocris Bioscience)
Make eight 1:3 serial dilutions in 100% DMSO from a 3 mM compound stock
Transfer 50 nl of compound into a 384-well OptiPlate (Perkin Elmer).
Typically, final concentrations of compound used in the assay ranged from 3000 nM to 0.152 nM.
Dilute a solution of the Tritiated compound to 1.25 nM in assay buffer. This is a 2.5× solution. The final concentration in the assay is 0.5 nM. Calculate the concentration by counting two 5 μl aliquots.
Use 0.25 ug of membrane/well. Dilute membranes to 9.7 μg/ml in assay buffer. Treat with 20 ug/ml adenosine deaminase (ADA) for 15 minutes at room temperature to degrade endogenous adenosine.
Use 100 μg/well wheat germ agglutinin-coated yttrium silicate SPA beads.
Mix ADA-treated membranes and SPA beads together for 30 min prior to assay.
To the Perkin-Elmer Optiplate-384 containing the compound titration add 20 μl of 2.5× solution of the Tritiated compound and 30 μl of the membrane-bead mixture. Incubate for one hour at room temperature with agitation.
Include total binding (assay buffer+1% DMSO) and non-specific binding (CGS15943, 1 μM) wells.
Allow the beads to settle for one hour.
A curve fitting program (i.e., Prism, Activity Base, Chemcart) is used to determine the EC50. The Ki value is calculated using the Cheng-Prusoff equation. Ki=EC50/(1+(radioligand concentration/Kd))

T1 sequence (P29274 whole entry): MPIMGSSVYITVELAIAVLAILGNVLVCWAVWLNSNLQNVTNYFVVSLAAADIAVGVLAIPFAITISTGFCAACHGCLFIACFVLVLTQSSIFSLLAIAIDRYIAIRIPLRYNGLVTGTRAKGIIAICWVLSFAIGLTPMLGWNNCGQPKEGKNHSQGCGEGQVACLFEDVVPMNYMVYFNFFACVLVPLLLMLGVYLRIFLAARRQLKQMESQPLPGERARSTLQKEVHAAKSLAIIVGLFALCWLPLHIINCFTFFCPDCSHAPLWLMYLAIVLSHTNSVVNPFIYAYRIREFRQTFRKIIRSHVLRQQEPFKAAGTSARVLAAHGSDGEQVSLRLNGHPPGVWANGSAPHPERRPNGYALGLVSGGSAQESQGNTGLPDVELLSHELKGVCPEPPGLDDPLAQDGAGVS

SMILES	Ki [nM]
COc1cccc2c1nc(N)n1cc(C(=O)N3C4CCCC3CC4)nc21 [Ex-208, (5-amino-7-methoxyimidazo[1,2-c]quinazolin-2-yl)(8-azabicyclo[3.2.1]octan-8-yl)methanone]	3.2

Same assay, conditions: membranes from HEK293 cells expressing human A2a receptor; 0.5 nM tritiated ligand; Cheng-Prusoff; read-out: A2a Ki

SMILES	Ki [nM]
Cc1noc(C)c1-c1cccc2c1nc(N)n1cc(Cc3ccc(F)cc3)nc21 [Ex-154, 7-(3,5-dimethylisoxazol-4-yl)-2-(4-fluorobenzyl)imidazo[1,2-c]quinazolin-5-amine]	48
COc1cccc2c1nc(N)n1cc(C(=O)N3CCC4(CC3)OCCC4(C)C)nc21 [Ex-234, (5-amino-7-methoxyimidazo[1,2-c]quinazolin-2-yl)(4,4-dimethyl-1-oxa-8-azaspiro[4.5]decan-8-yl)methanone]	2.6
COc1cccc2c1nc(N)n1cc(Cc3ccccc3C(F)(F)F)nc21 [Ex-17, 7-methoxy-2-(2-(trifluoromethyl)benzyl)imidazo[1,2-c]quinazolin-5-amine]	0.8
Nc1nc2c(F)cccc2c2nc(Cn3cc(-c4cc(C(F)(F)F)cc(C(F)(F)F)c4)nn3)cn12 [Ex-94, 2-((4-(3,5-bis(trifluoromethyl)phenyl)-1H-1,2,3-triazol-1-yl)methyl)-7-fluoroimidazo[1,2-c]quinazolin-5-amine]	150
Nc1nc2c(F)cccc2c2nc(C(=O)N3CCN4CCCC[C@@H]4C3)cn12 [Ex-284, (R)-(5-amino-7-fluoroimidazo[1,2-c]quinazolin-2-yl)(octahydro-2H-pyrido[1,2-a]pyrazin-2-yl)methanone]	33
Nc1nc2c(F)cccc2c2nc(Cc3ccccc3CN3CCN(c4ncccn4)CC3)cn12 [Ex-71, 7-fluoro-2-(2-((4-(pyrimidin-2-yl)piperazin-l-yl)methyl)benzyl) imidazo[1,2-c]quinazolin-5-amine]	5.3
CCCN1CCC2(CCN(C(=O)c3cn4c(N)nc5c(F)cccc5c4n3)CC2)C1 [Ex-277, (5-amino-7-fluoroimidazo[1,2-c]quinazolin-2-yl)(2-propyl-2,8-diazaspiro[4.5]decan-8-yl)methanone]	430
COc1cccc2c1nc(N)n1cc(C(=O)N3CCCC(F)(F)C3)nc21 [Ex-241, (5-amino-7-methoxyimidazo[1,2-c]quinazolin-2-yl)(3,3-difluoropiperidin-1-yl)methanone]	13
Nc1nc2c(F)cccc2c2nc(C(=O)N3CCc4cc(-c5ccc(F)c(F)c5)ccc4C3)cn12 [Ex-289, (5-amino-7-fluoroimidazo[1,2-c]quinazolin-2-yl)(6-(3,4-difluorophenyl)-3,4-dihydroisoquinolin-2(1H)-yl)methanone]	640
COc1cccc2c1nc(N)n1cc(CNCc3cccnc3)nc21 [Ex-145, 7-methoxy-2-(((pyridin-3-ylmethyl)amino)methyl)imidazo [1,2-c]quinazolin-5-amine]	28
COc1ccnc(C(=O)N2CCC(Cc3cn4c(N)nc5c(F)cccc5c4n3)CC2)c1 [Ex-320, (4-((5-amino-7-fluoroimidazo[1,2-c]quinazolin-2-yl)-methyl)piperidin-1-yl)(4-methoxypyridin-2-yl)methanone]	30
COc1cccc2c1nc(N)n1cc(C(=O)N3CCC(F)(F)CC3)nc21 [Ex-168, (5-amino-7-methoxyimidazo[1,2-c]quinazolin-2-yl)(4,4-difluoropiperidin-1-yl)methanone]	81
COc1cccc(C(=O)N2CCC(Cc3cn4c(N)nc5c(F)cccc5c4n3)CC2)n1 [Ex-325, (4-((5-amino-7-fluoroimidazo[1,2-c]-quinazolin-2-yl)-methyl)piperidin-1-yl)(6-methoxypyridin-2-yl)methanone]	54
COc1cccc2c1nc(N)n1cc(C(=O)N3CCCCC3C)nc21 (centres unmarked) [Ex-195, (5-amino-7-methoxyimidazo[1,2-c]quinazolin-2-yl)(2-methylpiperidin-1-yl)methanone]	10
CC(C)(C)OC(=O)N1CCCC2(CCN(C(=O)c3cn4c(N)nc5c(F)cccc5c4n3)CC2)C1 [Ex-265, tert-butyl 9-(5-amino-7-fluoroimidazo[1,2-c]quinazoline-2-carbonyl)-2,9-diazaspiro[5.5]undecane-2-carboxylate]	86
COc1cccc2c1nc(N)n1cc(C(=O)N3CC4CC4C3)nc21 (centres unmarked) [Ex-235, (5-amino-7-methoxyimidazo[1,2-c]quinazolin-2-yl)(3-azabicyclo[3.1.0]hexan-3-yl)methanone]	2.8
CC(C)(C)OC(=O)N1CCC2(CCCN(C(=O)c3cn4c(N)nc5c(F)cccc5c4n3)C2)C1 (centres unmarked) [Ex-260, tert-butyl 7-(5-amino-7-fluoroimidazo[1,2-c]quinazoline-2-carbonyl)-2,7-diazaspiro[4.5]decane-2-carboxylate]	15

The next lines start with the values.

Ki [nM]	SMILES
520	CCN1CCN(Cc2cn3c(N)nc4c(F)cccc4c3n2)CC1 [Ex-112, 2-((4-ethylpiperazin-1-yl)methyl)-7-fluoroimidazo[1,2-c]quinazolin-5-amine]
130	COc1cccc2c1nc(N)n1cc(C(=O)N3C[C@@H](C)O[C@H](C)C3)nc21 [Ex-239, (5-amino-7-methoxyimidazo[1,2-c]quinazolin-2-yl)((2R,6R)-2,6-dimethylmorpholino) methanone]
130	Cc1cc(Cc2cn3c(N)nc4c(-c5c(C)noc5C)cccc4c3n2)ccn1 [Ex-155, 7-(3,5-dimethylisoxazol-4-yl)-2-((2-methylpyridin-4-yl)methyl)imidazo[1,2-c]quinazolin-5-amine]
100	Nc1nc2c(F)cccc2c2nc(CC3CCN(C(=O)c4cccnc4)CC3)cn12 [Ex-317, (4-((5-amino-7-fluoroimidazo-[1,2-c]quinazolin-2-yl)methyl)piperidin-1-yl)(pyridin-3-yl)-methanone]
91	Nc1nc2c(F)cccc2c2nc(C(=O)N3CCc4cccc(CN5CCN(c6ccccn6)CC5)c4C3)cn12 [Ex-251, (5-amino-7-fluoroimidazo[1,2-c]quinazolin-2-yl)(8-((4-(pyridin-2-yl)piperazin-1-yl)methyl)-3,4-dihydroisoquinolin-2(1H)-yl)methanone]
80.6	CN(Cc1cccc2cccnc12)C(=O)c1cn2c(N)nc3ccccc3c2n1 [Ex-160, 5-amino-N-methyl-N-(quinolin-8-ylmethyl)imidazo[1,2-c]quinazoline-2-carboxamide]
49	COc1cccc2c1nc(N)n1cc(C(=O)N3CCCOCC3)nc21 [Ex-177, (5-amino-7-methoxyimidazo[1,2-c]quinazolin-2-yl)(1,4-oxazepan-4-yl)methanone]
20	COc1cccc2c1nc(N)n1cc(C(=O)N3CCCC(F)C3)nc21 (centres unmarked) [Ex-171, (5-amino-7-methoxyimidazo[1,2-c]quinazolin-2-yl)(3-fluoropiperidin-1-yl)methanone]
16	COc1cccc2c1nc(N)n1cc(C(=O)N3CC(C)CC(C)C3)nc21 (centres unmarked) [Ex-167, (5-amino-7-methoxyimidazo[1,2-c]quinazolin-2-yl)(3,5-dimethylpiperidin-1-yl)methanone]
12.8	Nc1nc2c(F)cccc2c2nc(C(=O)NCc3cccc4cccnc34)cn12 [Ex-163, 5-amino-7-fluoro-N-(quinolin-8-ylmethyl)imidazo[1,2-c]quinazoline-2-carboxamide]
9.8	COc1cccc2c1nc(N)n1cc(Cc3ccc(N4CCOCC4)nc3)nc21 [Ex-39, 7-methoxy-2-((6-morpholinopyridin-3-yl)methyl)imidazo[1,2-c]quinazolin-5-amine]
8.4	Nc1nc2c(F)cccc2c2nc(CN3CCc4ccc(CC(=O)Nc5ccccn5)cc4C3)cn12 [Ex-131, 2-(2-((5-amino-7-fluoroimidazo[1,2-c]quinazolin-2-yl)methyl)-1,2,3,4-tetrahydroisoquinolin-7-yl)-N-(pyridin-2-yl)acetamide]
5.9	CC(=O)N1CCc2cc(Cc3cn4c(N)nc5c(F)cccc5c4n3)ccc2C1 [Ex-47, 1-(6-((5-amino-7-fluoroimidazo[1,2-c]quinazolin-2-yl)methyl)-3,4-dihydroisoquinolin-2(1H)-yl)ethan-1-one]
4.2	Nc1nc2c(F)cccc2c2nc(Cc3ccccc3CN3CCC(N4CCOCC4)CC3)cn12 [Ex-73]
